Source: ChEMBL document CHEMBL6153075, “Design, synthesis, and antitumor evaluation of triazolopyridine derivatives as novel inhibitors for BRD4” (Eur J Med Chem, 2025)

Tests used:
[1] = system: HL-60; assay: Antiproliferative activity against human HL-60 cells; format: functional, cell-based
[2] = system: MV4-11; assay: Antiproliferative activity against human MV4-11 cells
[3] = system: HCT-116; assay: Antiproliferative activity against human HCT-116 cells; format: functional, cell-based
[4] = system: MV4-11; assay: Induction of apoptosis in human MV4-11 cells incubated for 72 hrs by Annexin V-FITC/PI staining based flow cytometry; format: functional, cell-based; settings: dose 0.25-10 µM
[5] = Metabolic stability in human liver microsomes assessed as clearance preincubated for 5 mins followed by NADPH addition measured for 5 to 90 mins by LC-MS/MS analysis; format: ADME, Microsome; settings: time 10-95 min, read-out: CLH
[6] = Metabolic stability in human liver microsomes assessed as half life preincubated for 5 mins followed by NADPH addition measured for 5 to 90 mins by LC-MS/MS analysis; format: ADME, Microsome; settings: time 10-95 min
[7] = AUC (0 to t) in ICR mouse at 1 mg/kg, iv measured for 5 to 480 mins by LC-MS/MS analysis; format: ADME, organism-based; settings: in vivo, time 5-480 min
[8] = Drug uptake in ICR mouse plasma at 10 mg/kg, po measured for 5 to 480 mins by LC-MS/MS analysis; format: ADME, organism-based; settings: in vivo, time 5-480 min
[9] = AUC (0 to infinity) in ICR mouse at 10 mg/kg, po measured for 5 to 480 mins by LC-MS/MS analysis; format: ADME, organism-based; settings: in vivo, time 5-480 min
[10] = Cmax in ICR mouse at 1 mg/kg, iv measured for 5 to 480 mins by LC-MS/MS analysis; format: ADME, organism-based; settings: in vivo, time 5-480 min
[11] = AUC (0 to t) in ICR mouse at 10 mg/kg, po measured for 5 to 480 mins by LC-MS/MS analysis; format: ADME, organism-based; settings: in vivo, time 5-480 min
[12] = system: MV4-11; assay: Induction of apoptosis in human MV4-11 cells at 0.25 to 10 uM incubated for 72 hrs by Annexin V-FITC/PI staining based flow cytometry (reference value: 43.2 %); format: functional; settings: dose 0.25-10 µM
[13] = Half life in ICR mouse at 1 mg/kg, iv measured for 5 to 480 mins by LC-MS/MS analysis; format: ADME, organism-based; settings: in vivo, time 5-480 min
[14] = AUC (0 to infinity) in ICR mouse at 1 mg/kg, iv measured for 5 to 480 mins by LC-MS/MS analysis; format: ADME, organism-based; settings: in vivo, time 5-480 min
[15] = Blood concentration elimination rate constant for the terminal phase in ICR mouse at 10 mg/kg, po measured for 5 to 480 mins by LC-MS/MS analysis; format: ADME, organism-based; settings: time 5-480 min, read-out: LambdaZ (converted)
[16] = Half life in ICR mouse at 10 mg/kg, po measured for 5 to 480 mins by LC-MS/MS analysis; format: ADME, organism-based; settings: in vivo, time 5-480 min
[17] = MRT in ICR mouse at 1 mg/kg, iv measured for 5 to 480 mins by LC-MS/MS analysis; format: ADME, organism-based; settings: in vivo, time 5-480 min
[18] = Drug uptake in ICR mouse plasma at 1 mg/kg, iv measured for 5 to 480 mins by LC-MS/MS analysis; format: ADME, organism-based; settings: in vivo, time 5-480 min
[19] = Tmax in ICR mouse at 10 mg/kg, po measured for 5 to 480 mins by LC-MS/MS analysis; format: ADME, organism-based; settings: in vivo, time 5-480 min
[20] = MRT in ICR mouse at 10 mg/kg, po measured for 5 to 480 mins by LC-MS/MS analysis; format: ADME, organism-based; settings: in vivo, time 5-480 min
[21] = Clearance in ICR mouse at 10 mg/kg, po measured for 5 to 480 mins by LC-MS/MS analysis; format: ADME, organism-based; settings: in vivo, time 5-480 min
[22] = Blood concentration elimination rate constant for the terminal phase in ICR mouse at 1 mg/kg, iv measured for 5 to 480 mins by LC-MS/MS analysis; format: ADME, organism-based; settings: time 5-480 min, read-out: LambdaZ (converted)
[23] = Cmax in ICR mouse at 10 mg/kg, po measured for 5 to 480 mins by LC-MS/MS analysis; format: ADME, organism-based; settings: in vivo, time 5-480 min
[24] = Clearance in ICR mouse at 1 mg/kg, iv measured for 5 to 480 mins by LC-MS/MS analysis; format: ADME, organism-based; settings: in vivo, time 5-480 min
[25] = Oral bioavailability in ICR mouse at 10 mg/kg measured for 5 to 480 mins by LC-MS/MS analysis; format: ADME, organism-based; settings: in vivo, time 5-480 min
[26] = Tmax in ICR mouse at 1 mg/kg, iv measured for 5 to 480 mins by LC-MS/MS analysis; format: ADME, organism-based; settings: in vivo, time 5-480 min
[27] = Volume of distribution at steady state in ICR mouse at 1 mg/kg, iv measured for 5 to 480 mins by LC-MS/MS analysis; format: ADME, organism-based; settings: in vivo, time 5-480 min

## Cc1sc2c(c1C)C(c1ccc(Cl)cc1)=N[C@@H](CC(=O)OC(C)(C)C)c1nnc(C)n1-2
[1]
  IC50: 3150 nM
[2]
  IC50: 30 nM
[3]
  IC50: 2700 nM
[4]
  Activity: Dose-dependent-effect

## COc1ccc(Nc2c(-c3ccc4nnc(C)n4c3)nc3cnc(N4CCOCC4)cn23)cc1
[2]
  IC50: 560 nM
[3]
  IC50: 4490 nM

## Cc1nnc2ccc(-c3nc4cnc(-c5cnn(C)c5)cn4c3Nc3ccc(F)cc3)cn12
[1]
  IC50: 8250 nM
[2]
  IC50: 4900 nM

## Cc1nnc2ccc(-c3nc4cnc(N5CCOCC5)cn4c3Nc3ccc(C(F)(F)F)cc3)cn12
[5]
  microsomal CLint: 4.52 µL/min/mg
[2]
  IC50: 290 nM
[6]
  half-life: 2.56 h

## CCc1nnc2ccc(-c3nc4cnc(-c5cnn(C)c5)cn4c3Nc3ccc(F)cc3Br)cn12
[7]
  AUC(0-t): 4640 ng·h/mL
[8]
  Drug uptake: Active
[9]
  AUC(0-inf): 20900 ng·h/mL
[10]
  Cmax: 4410 ng/mL
[11]
  AUC(0-t): 18300 ng·h/mL
[12]
  Activity: 83.2%
[13]
  half-life: 1.06 h
[5]
  microsomal CLint: 0.3 µL/min/mg
[14]
  AUC(0-inf): 4660 ng·h/mL
[15]
  k el: 9.72e-05 s⁻¹
[2]
  IC50: 20 nM
[16]
  half-life: 2.26 h
[17]
  MRT: 1.32 h
[18]
  Drug uptake: Active
[6]
  half-life: 38.6 h
[19]
  Tmax: 0.5 h
[20]
  MRT: 3.9 h
[21]
  CL: 0.001 (mg/kg)/(ng/ml)/hr
[22]
  k el: 0.000181 s⁻¹
[23]
  Cmax: 5480 ng/mL
[24]
  CL: 2 10^-4(mg/kg)/(ng/ml)/hr
[4]
  Activity: Dose-dependent-effect; Activity Was Better Than (+)-Jq1
[25]
  bioavailability: 44.8%
[26]
  Tmax: 4.8 min
[27]
  Vdss: 3 10^-4(mg/kg)/(ng/ml)

## Cc1nnc2ccc(-c3nc4cnc(N5CCOCC5)cn4c3Nc3cccc(F)c3)cn12
[2]
  IC50: 870 nM

## CCc1nnc2ccc(-c3nc4cnc(N5CCN(C)CC5)cn4c3Nc3ccc(F)c(Cl)c3)cn12
[2]
  IC50: 740 nM
